Data on one compound can be found in patent US9321772B2, “Substituted pyrazolo[3,4-D]pyrimidines and uses thereof” (The Regents of the University of California, priority 2011, dated 2016).

In assay [1] the test system is 266 kinases (approximately one-half of the human kinome). In words: Kinome-wide in vitro kinase profiling. The assay is classed as biochemical. The following applies: 1 μM; among AD36, AD57, AD58. The text has this: FIG. 6A-6C Select Screen Inhibition Data for Tyrosine Kinases. Percent inhibition of kinase activity. Dark gray is greater than 80% inhibition, white is 40-80% inhibition, and light gray is less than 40% inhibition. Hashed boxes indicate no useful data was obtained. Full assay conditions described at www.invitrogen.com/kinaseprofiling.
FIG. 7A-7F Select Screen Inhibition Data for Serine/Threonine Kinases. Percent inhibition of kinase activity. Dark gray is greater than 80% inhibition, white is 40-80% inhibition, and light gray is less than 40% inhibition. Hashed boxes indicate no useful data was obtained. Full assay conditions described at www.invitrogen.com/kinaseprofiling.
FIG. 8 Select Screen Inhibition Data for Lipid Kinases. Percent inhibition of kinase activity. Dark gray is greater than 80% inhibition, white is 40-80% inhibition, and light gray is less than 40% inhibition. Hashed boxes indicate no useful data was obtained. Full assay conditions described at www.invitrogen.com/kinaseprofiling.
(§1) Using in vitro kinase assays we tested AD57, AD36, and AD58 at 1 μM for activity against approximately one-half of the human kinome (FIG. 1E): 165 Ser/Thr kinases, 91 Tyr kinases, and 10 PI kinases were assayed, totaling 266 kinases (244 distinct kinases plus 22 mutant isoforms; see FIG. 6A-6C, FIG. 7A-7F, and FIG. 8 for measured inhibition values).

Assay [2] concerns the target EGFR (T790M) (Homo sapiens, UniProt P00533, T790M). The assay can be described thus: In vitro kinase assay, EGFR gatekeeper mutant. Format: biochemical. Particulars: 1 μM. As for the experimental part:
FIG. 10F. Selectivity profiles for a subset of kinases. The gatekeeper mutant alleles of RET, ABL1, and EGFR are V804L, T315I and T790M, respectively.
as §1

Chain of EGFR (T790M) (P00533 25-1210 T790M): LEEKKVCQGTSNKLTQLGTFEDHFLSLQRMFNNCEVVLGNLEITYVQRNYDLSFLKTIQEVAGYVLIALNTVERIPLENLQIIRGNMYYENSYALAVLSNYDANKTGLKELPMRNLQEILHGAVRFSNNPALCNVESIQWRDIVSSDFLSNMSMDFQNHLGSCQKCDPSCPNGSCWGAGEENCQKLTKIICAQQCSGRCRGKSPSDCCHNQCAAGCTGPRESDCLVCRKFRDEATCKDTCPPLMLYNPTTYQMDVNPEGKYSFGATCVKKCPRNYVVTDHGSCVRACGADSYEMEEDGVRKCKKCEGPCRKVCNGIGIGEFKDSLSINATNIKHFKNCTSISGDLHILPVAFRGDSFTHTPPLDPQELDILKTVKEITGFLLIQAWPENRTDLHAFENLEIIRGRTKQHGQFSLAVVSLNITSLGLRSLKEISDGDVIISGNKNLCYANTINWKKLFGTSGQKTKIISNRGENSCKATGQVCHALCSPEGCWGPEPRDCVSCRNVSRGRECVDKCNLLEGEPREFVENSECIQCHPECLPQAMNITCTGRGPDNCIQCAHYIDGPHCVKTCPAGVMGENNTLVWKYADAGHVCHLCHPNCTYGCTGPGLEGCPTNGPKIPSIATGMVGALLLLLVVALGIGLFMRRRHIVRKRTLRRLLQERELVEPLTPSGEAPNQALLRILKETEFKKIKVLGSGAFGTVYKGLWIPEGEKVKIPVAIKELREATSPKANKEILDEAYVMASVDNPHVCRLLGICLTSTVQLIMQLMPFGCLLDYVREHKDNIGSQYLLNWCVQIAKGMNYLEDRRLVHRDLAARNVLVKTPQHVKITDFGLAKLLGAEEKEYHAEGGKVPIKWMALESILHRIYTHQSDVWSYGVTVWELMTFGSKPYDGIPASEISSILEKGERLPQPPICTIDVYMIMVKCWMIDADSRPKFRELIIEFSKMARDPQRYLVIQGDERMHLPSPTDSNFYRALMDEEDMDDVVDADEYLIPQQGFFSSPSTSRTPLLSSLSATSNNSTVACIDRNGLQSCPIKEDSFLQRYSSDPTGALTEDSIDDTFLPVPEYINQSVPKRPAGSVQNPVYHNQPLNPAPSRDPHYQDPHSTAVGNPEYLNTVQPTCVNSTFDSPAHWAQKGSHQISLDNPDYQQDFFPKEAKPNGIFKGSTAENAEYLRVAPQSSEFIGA

For `CC(C)n1nc(-c2ccc(NC(=O)Nc3cccc(C(F)(F)F)c3)cc2)c2c(N)ncnc21` [AD57], the “number of kinases inhibited at a cutoff of greater than 80% inhibition” value in assay [1] was “most”. Further, the “inhibition of EGFR (T790M) versus wild type” value in assay [2] is “retained or improved on inhibition”.
